Results as given in patent publication US20250288561A1, “NEZULCITINIB FOR DELIVERY BY NEBULIZED ORAL INHALATION” (THERAVANCE BIOPHARMA R&D IP, LLC, priority 2022, published 2025).

Columns and labels:
IFNγ signaling = test: Inhibition of cytokine signaling; format: cell-based
JAK3 = molecular target: T1, JAK3 (Homo sapiens, UniProt P52333); test: JAK enzyme inhibition; format: biochemical
T1 sequence (P52333 1-1124): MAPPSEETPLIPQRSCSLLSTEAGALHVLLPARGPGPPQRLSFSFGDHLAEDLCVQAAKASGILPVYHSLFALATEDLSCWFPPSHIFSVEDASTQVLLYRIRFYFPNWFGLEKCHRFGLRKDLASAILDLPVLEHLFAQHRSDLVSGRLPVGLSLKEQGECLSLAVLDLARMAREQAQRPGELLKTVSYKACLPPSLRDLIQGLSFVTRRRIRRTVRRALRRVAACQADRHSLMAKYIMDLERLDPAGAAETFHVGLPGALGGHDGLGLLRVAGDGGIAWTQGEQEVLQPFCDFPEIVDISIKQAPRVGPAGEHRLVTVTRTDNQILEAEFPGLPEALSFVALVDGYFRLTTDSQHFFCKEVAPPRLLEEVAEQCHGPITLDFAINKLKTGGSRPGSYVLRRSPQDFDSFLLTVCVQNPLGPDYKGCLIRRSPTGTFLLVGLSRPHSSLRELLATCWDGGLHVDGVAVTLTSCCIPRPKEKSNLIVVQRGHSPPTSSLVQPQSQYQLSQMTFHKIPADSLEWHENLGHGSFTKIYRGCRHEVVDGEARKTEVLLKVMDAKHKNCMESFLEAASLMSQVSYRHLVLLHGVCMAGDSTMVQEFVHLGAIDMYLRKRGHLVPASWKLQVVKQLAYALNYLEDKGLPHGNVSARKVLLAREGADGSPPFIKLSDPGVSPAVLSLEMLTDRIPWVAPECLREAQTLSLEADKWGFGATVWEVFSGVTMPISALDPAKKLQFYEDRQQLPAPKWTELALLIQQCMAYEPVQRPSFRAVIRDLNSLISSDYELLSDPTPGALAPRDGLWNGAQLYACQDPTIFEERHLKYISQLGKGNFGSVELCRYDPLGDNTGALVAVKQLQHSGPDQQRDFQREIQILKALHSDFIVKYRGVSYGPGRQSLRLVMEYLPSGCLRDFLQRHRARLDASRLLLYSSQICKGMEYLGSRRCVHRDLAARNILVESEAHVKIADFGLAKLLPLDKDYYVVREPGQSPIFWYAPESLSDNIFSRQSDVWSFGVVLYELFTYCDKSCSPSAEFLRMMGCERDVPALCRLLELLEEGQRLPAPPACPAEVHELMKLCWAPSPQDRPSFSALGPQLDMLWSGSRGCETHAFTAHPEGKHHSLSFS

CCc1cc(O)ccc1-c1ccc2c(-c3nc4c([nH]3)CN(C(C)C)[C@H](C(=O)N3CC(N(C)C)C3)C4)n[nH]c2c1 [Compound 1, (S)-(3-(dimethylamino)azetidin-1-yl)(2-(6-(2-ethyl-4-hydroxyphenyl)-1H-indazol-3-yl)-5-isopropyl-4,5,6,7-tetrahydro-3H-imidazo[4,5-c]pyridin-6-yl)methanone]
inhibition of IFNγ signaling (IFNγ signaling): shown to inhibit
inhibition of JAK3 (JAK3): potent inhibitor
